Assay results as given in patent US20070185104A1, “Benzoxazole acetonitriles” (APPLIED RESEARCH SYSTEMS ARS HOLDING N.V., priority 2003, published 2007).

Experiments:
[1] = tested on: db/db mice; experiment: Experimental model of type II diabetes (oral postprandial glycemia in db/db mice); type: in vivo; details: p.o. 50 mg/kg, compared to vehicle Group 1
Method: b) In vivo Assay: Experimental Model of Type II Diabetes (Oral Postprandial Glycemia in db/db Mice)
The following assay aims at determining the anti-diabetic effect of the test compounds of formula (I) in a model of postprandial glycemia in db/db mice, in vivo.
The assay was performed as follows:
A total of 24 db/db mice (about 8-9 weeks; obtained from IFFACREDO, l'Arbreste, France) were fasted during 20 hours.
2 groups, each consisting of 6 animals were formed: • Group 1: The animals were administered (per os) a dose of 10 mg/kg of vehicle. • Group 2: The animals were administered (per os) a dose of 50 mg/kg of the test compound according to formula (I).
After oral administration of the compounds of formula (I) solubilized or suspended in CarboxyMethylCellulose (0.5%), Tween 20 (0.25%) and water as vehicle, the animals had access to commercial food (D04, UAR, Villemoisson/Orge, France) ad libitum. The diabetic state of the mice was verified by determining the blood glucose level before drug administration. Blood glucose and serum insulin levels were then determined 4 hrs after drug administration.
The determination of the blood glucose level was performed using a glucometer (Precision Q.I.D., Medisense, Abbot, ref. 212.62.31). […]
Changes in blood glucose and serum insulin of drug treated mice were expressed as a percentage of control (group 1: vehicle treated mice).

[2] = molecular target: human GSK3 beta (Homo sapiens, UniProt P49841); experiment: GSK3β in vitro assay (33P-ATP phosphorylation of phospho GS2 peptide); type: biochemical; details: In vitro potency on human GSK3 beta; read-out: IC50 (μM) GSK3beta
human GSK3 beta, sequence (P49841 whole entry): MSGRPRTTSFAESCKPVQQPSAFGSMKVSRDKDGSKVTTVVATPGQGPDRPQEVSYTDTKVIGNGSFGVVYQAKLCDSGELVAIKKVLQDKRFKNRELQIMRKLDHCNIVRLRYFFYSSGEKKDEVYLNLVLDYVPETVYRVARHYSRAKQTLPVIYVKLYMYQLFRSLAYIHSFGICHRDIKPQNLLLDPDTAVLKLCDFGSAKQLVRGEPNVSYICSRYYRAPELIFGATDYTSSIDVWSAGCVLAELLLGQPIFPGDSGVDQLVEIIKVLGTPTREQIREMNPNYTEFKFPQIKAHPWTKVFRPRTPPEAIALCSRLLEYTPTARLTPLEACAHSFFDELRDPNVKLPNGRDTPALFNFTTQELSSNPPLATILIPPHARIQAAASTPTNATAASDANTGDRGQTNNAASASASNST
Method: GSK3β Assay (see Bioorg. Med. Chem. Lett by Naerum et al. 12 p. 1525-1528 (2002))
In a final reaction volume of 25 μl, GSK3β (h) (5-10 mU) is incubated with 8 mM MOPS pH 7.0, 0.2 mM EDTA, 20 μM […](p)EDEEE (being the GSK3 substrate; a phospho GS2 peptide), 10 mM Mg Acetate and [γ-^33P-ATP] (Specific activity approx. 500 cpm/pmol, concentration as required). The reaction is initiated by the addition of Mg^2+ [γ-^33P-ATP]. After incubation for 40 minutes at room temperature, the reaction is stopped by the addition of 5 μl of a 3% phosphoric acid solution. 10 μl of the reaction is then spotted onto a P30 filtermat and washed three times for 5 minutes in 50 mM phosphoric acid and once in methanol prior to drying and the degree of phosphorylation of the substrate is determined by scintillation counting.

SMILES | IC50 [2] [µM] | blood glucose level reduced (percentage of vehicle control) ([1]; 4 hrs after drug administration, food intake after 20 h fasting) | insulin level reduced (percentage of vehicle control) ([1]; serum insulin 4 hrs after drug administration)
N#C/C(=C1\Nc2ccccc2O1)c1ccnc(NCCCN2CCCC2=O)n1 [Example 5, 1,3-benzoxazol-2(3H)-ylidene(2-{[3-(2-oxopyrrolidin-1-yl)propyl]amino}pyrimidin-4-yl)acetonitrile] | – | about 25% | about 11%
N#C/C(=C1\Nc2ccccc2O1)c1ccnc(NCc2cccnc2)n1 [Example 41, 1,3-benzoxazol-2(3H)-ylidene{2-[(pyridin-3-ylmethyl)amino]pyrimidin-4-yl}acetonitrile] | < 10 | – | –
Cc1cc(/C(C#N)=C2/Nc3ccccc3O2)nc(NCCCn2cncn2)n1 [Example 47] | < 10 | – | –
CCN1CCN(c2cc(/C(C#N)=C3/Nc4ccccc4O3)ncn2)CC1 [Example 49, 1,3-benzoxazol-2(3H)-ylidene[6-(4-ethylpiperazin-1-yl)pyrimidin-4-yl]acetonitrile] | < 10 | – | –
CC(=O)N1CCN(C(=O)CCCNc2nccc(/C(C#N)=C3\Nc4ccccc4O3)n2)CC1 [Example 70, (2-{[4-(4-acetyl-1-piperazinyl)-4-oxobutyl]amino}-4-pyrimidinyl)(1,3-benzoxazol-2(3H)-ylidene)ethanenitrile] | < 10 | – | –

Further lines, with some results ahead:

IC50 [2] [µM] | SMILES | blood glucose level reduced (percentage of vehicle control) ([1]; 4 hrs after drug administration, food intake after 20 h fasting) | insulin level reduced (percentage of vehicle control) ([1]; serum insulin 4 hrs after drug administration)
< 10 | N#C/C(=C1\Nc2ccccc2O1)c1ccnc(NC2CC2)n1 [Example 10, 1,3-benzoxazol-2(3H)-ylidene[2-(cyclopropylamino)pyrimidin-4-yl]acetonitrile] | – | –
< 10 | CC(C)OCCCNc1nccc(/C(C#N)=C2/Nc3ccccc3O2)n1 [Example 42, 1,3-benzoxazol-2(3H)-ylidene{2-[(3-isopropoxypropyl)amino]pyrimidin-4-yl}acetonitrile] | – | –
< 10 | CN(C)CCCC(=O)Nc1nccc(/C(C#N)=C2/Nc3ccccc3O2)n1 [Example 89, N-{4-[1,3-benzoxazol-2(3H)-ylidene(cyano)methyl]-2-pyrimidinyl}-4-(dimethylamino)butanamide] | – | –
